Source: patent US10273236B2, “Macrocyclic factor XIa inhibitors bearing heterocyclic groups” (Bristol-Myers Squibb Company, priority 2014, dated 2019)
Counter-ions that a name gives are not always drawn.

Assays:
[1] = biological target: T1, purified human Factor XIa (Homo sapiens, UniProt P03951); assay: Factor XIa inhibition assay, chromogenic substrate S-2366 (Ki); type: biochemical
T1 construct: purchased Haematologic Technologies
Protocol: (§1) The effectiveness of compounds of the present invention as inhibitors of the coagulation Factors XIa, VIIa, IXa, Xa, XIIa, plasma kallikrein or thrombin, can be determined using a relevant purified serine protease, respectively, and an appropriate synthetic substrate. The rate of hydrolysis of the chromogenic or fluorogenic substrate by the relevant serine protease was measured both in the absence and presence of compounds of the present invention. […] A decrease in the rate of absorbance or fluorescence change in the presence of inhibitor is indicative of enzyme inhibition. Such methods are known to one skilled in the art. The results of this assay are expressed as the inhibitory constant, Ki.
Factor XIa determinations were made in 50 mM HEPES buffer at pH 7.4 containing 145 mM NaCl, 5 mM KCl, and 0.1% PEG 8000 (polyethylene glycol; JT Baker or Fisher Scientific). Determinations were made using purified human Factor XIa at a final concentration of 25-200 pM (Haematologic Technologies) and the synthetic substrate S-2366 (pyroGlu-Pro-Arg-pNA; Chromogenix or AnaSpec) at a concentration of 0.0002-0.001 M.
(§2) Values of Ki were determined by allowing the protease to react with the substrate in the presence of the inhibitor.
(§3) Reactions were allowed to go for periods of 20-180 minutes (depending on the protease) and the velocities (rate of absorbance or fluorescence change versus time) were measured.
(§4) The following relationships were used to calculate Ki values: (Vmax*S)/(Km+S) (vo−vs)/vs=I/(Ki(1+S/Km)) for a competitive inhibitor with one binding site; or vs/vo=A+((B−A)/1+((IC50/(I)^n))); and Ki=IC50/(1+S/Km) for a competitive inhibitor where: […]

[2] = biological target: T2, purified human plasma kallikrein (Homo sapiens, UniProt P03952); assay: Plasma kallikrein inhibition assay, chromogenic substrate S-2302 (Ki); type: biochemical
T2 construct: Plasma prekallikrein is a zymogen of a trypsin-like serine protease; purchased Enzyme Research Laboratories
T2 sequence (P03952 391-638 limits assumed): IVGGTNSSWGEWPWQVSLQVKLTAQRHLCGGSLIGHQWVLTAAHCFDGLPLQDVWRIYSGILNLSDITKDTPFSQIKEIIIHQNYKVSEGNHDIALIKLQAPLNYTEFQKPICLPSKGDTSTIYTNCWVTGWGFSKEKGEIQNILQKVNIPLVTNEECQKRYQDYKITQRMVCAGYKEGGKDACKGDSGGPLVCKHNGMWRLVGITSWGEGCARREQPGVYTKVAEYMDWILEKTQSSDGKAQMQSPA
T2 sequence (P03952 20-390 partner limits assumed): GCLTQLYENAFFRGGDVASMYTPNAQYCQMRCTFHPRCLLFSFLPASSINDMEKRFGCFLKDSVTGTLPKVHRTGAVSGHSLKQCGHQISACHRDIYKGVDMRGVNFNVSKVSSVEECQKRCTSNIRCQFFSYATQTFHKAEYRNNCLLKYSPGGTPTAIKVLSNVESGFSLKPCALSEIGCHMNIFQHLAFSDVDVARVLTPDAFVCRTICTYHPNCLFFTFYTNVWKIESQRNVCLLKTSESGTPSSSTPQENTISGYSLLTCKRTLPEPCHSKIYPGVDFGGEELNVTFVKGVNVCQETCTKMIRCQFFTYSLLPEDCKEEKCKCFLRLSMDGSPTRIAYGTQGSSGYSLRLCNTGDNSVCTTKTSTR
Protocol: as §1
Plasma kallikrein determinations were made in 0.1 M sodium phosphate buffer at a pH of 7.5 containing 0.1-0.2 M sodium chloride and 0.5% PEG 8000. Determinations were made using purified human plasma kallikrein (Enzyme Research Laboratories) at a final assay concentration of 200 pM and the synthetic substrate S-2302 (H-(D)-Pro-Phe-Arg-pNA; Chromogenix) at a concentration of 0.00008-0.0004 M.
as §2, §3, §4

T1 sequence (P03951 388-625 limits assumed): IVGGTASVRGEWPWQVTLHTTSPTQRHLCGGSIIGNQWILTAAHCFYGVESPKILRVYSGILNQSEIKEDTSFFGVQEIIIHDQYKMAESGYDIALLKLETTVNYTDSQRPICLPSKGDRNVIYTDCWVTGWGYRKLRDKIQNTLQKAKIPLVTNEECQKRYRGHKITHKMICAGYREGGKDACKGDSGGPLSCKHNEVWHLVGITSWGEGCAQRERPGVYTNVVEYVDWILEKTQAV
T1 sequence (P03951 19-387 partner limits assumed): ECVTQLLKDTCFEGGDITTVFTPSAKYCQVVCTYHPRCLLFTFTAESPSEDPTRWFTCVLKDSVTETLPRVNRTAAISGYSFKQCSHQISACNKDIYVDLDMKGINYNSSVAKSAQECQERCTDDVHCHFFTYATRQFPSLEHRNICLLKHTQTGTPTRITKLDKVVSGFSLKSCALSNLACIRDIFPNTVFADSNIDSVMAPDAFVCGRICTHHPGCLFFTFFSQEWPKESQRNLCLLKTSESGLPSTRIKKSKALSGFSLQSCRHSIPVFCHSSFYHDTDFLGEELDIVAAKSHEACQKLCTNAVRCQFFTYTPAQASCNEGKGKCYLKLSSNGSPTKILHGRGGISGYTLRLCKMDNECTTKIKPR

Row | Structure (SMILES) | Ki [1] [nM] | Ki [2] [nM]
1 | C[C@H]1C(=O)Nc2cnn(C)c2-c2ccnc(c2)[C@@H](N2CCC(c3c(C(F)(F)F)ccc(Cl)c3F)=CC2=O)CCC1F (stereo partly drawn) [Example 20, (9S,13S)-13-{4-[3-chloro-2-fluoro-6-(trifluoromethyl)phenyl]-6-oxo-1,2,3,6-tetrahydropyridin-1-yl}-10-fluoro-3,9-dimethyl-3,4,7,15-tetraazatricyclo[12.3.1.0^2,6]octadeca-1(18),2(6),4,14,16-pentaen-8-one] | 1.4 | 40
2 | [2H]C([2H])([2H])n1ncc2c1-c1ccnc(c1)[C@@H](n1ccc(-c3cc(Cl)ccc3-n3cc(C(F)(F)F)nn3)cc1=O)CCC[C@@H](C)C(=O)N2 [Example 62, (9R,13S)-13-(4-{5-Chloro-2-[4-(trifluoromethyl)-1H-1,2,3-triazol-1-yl]phenyl}-2-oxo-1,2-dihydropyridin-1-yl)-3-(^2H3)methyl-9-methyl-3,4,7,15-tetraazatricyclo[12.3.1.0^2,6]octadeca-1(18),2(6),4,14,16-pentaen-8-one, trifluoroacetate] | 0.1 | 6
3 | C[C@@H]1CCC[C@H](N2CCC(c3c(OC(F)F)ccc(Cl)c3F)=CC2=O)c2cc(ccn2)-c2c(cnn2C(F)F)NC1=O [Example 21, (9R,13S)-13-{4-[3-chloro-6-(difluoromethoxy)-2-fluorophenyl]-6-oxo-1,2,3,6-tetrahydropyridin-1-yl}-3-(difluoromethyl)-9-methyl-3,4,7,15-tetraazatricyclo[12.3.1.0^2,6]octadeca-1(18),2(6),4,14,16-pentaen-8-one] | 0.69 | 40
4 | C[C@@H]1CCC[C@H](N2CCC(c3c(C(F)(F)F)ccc(Cl)c3F)=CC2=O)c2cc(ccn2)-c2c(cnn2C(F)F)NC1=O [Example 14, (9R,13S)-13-{4-[3-chloro-2-fluoro-6-(trifluoromethyl)phenyl]-6-oxo-1,2,3,6-tetrahydropyridin-1-yl}-3-(difluoromethyl)-9-methyl-3,4,7,15-tetraazatricyclo[12.3.1.0^2,6]octadeca-1(18),2(6),4,14,16-pentaen-8-one] | 1 | 110
5 | CC(=O)c1ccc(Cl)c(F)c1C1=CC(=O)N([C@H]2CCC[C@@H](C)C(=O)Nc3cnn(C)c3-c3ccnc2c3)CC1 [Example 46, (9R,13S)-13-[4-(6-acetyl-3-chloro-2-fluorophenyl)-6-oxo-1,2,3,6-tetrahydropyridin-1-yl]-3,9-dimethyl-3,4,7,15-tetraazatricyclo[12.3.1.0^2,6]octadeca-1(18),2(6),4,14,16-pentaen-8-one] | 3.5 | 46
6 | [2H]C([2H])([2H])n1ncc2c1-c1cc(ccn1)[C@@H](n1ncc(-c3cc(Cl)ccc3-n3cc(C(F)(F)F)nn3)cc1=O)CCC[C@@H](C)C(=O)N2 [Example 64, (9R,13S)-13-(4-{5-Chloro-2-[4-(trifluoromethyl)-1H-1,2,3-triazol-1-yl]phenyl}-6-oxo-1,6-dihydropyridazin-1-yl)-3-(^2H3)methyl-9-methyl-3,4,7,17-tetraazatricyclo[12.3.1.0^2,6]octadeca-1(18),2(6),4,14,16-pentaen-8-one] | 0.71 | 52.6
7 | C[C@H]1C(=O)Nc2cnn(C)c2-c2ccnc(c2)[C@@H](N2CCC(c3cc(Cl)ccc3-n3cc(Cl)nn3)=CC2=O)CCC1F (single isomer, unassigned; isomer a) [Example 13] | 0.1 | 6
8 | C[C@@H]1CCC[C@H](N2CCC(c3c(Br)ccc(Cl)c3F)=CC2=O)c2cc(ccn2)-c2c(cnn2C)NC1=O [Example 36, (9R,13S)-13-[4-(6-bromo-3-chloro-2-fluorophenyl)-6-oxo-1,2,3,6-tetrahydropyridin-1-yl]-3,9-dimethyl-3,4,7,15-tetraazatricyclo[12.3.1.0^2,6]octadeca-1(18),2(6),4,14,16-pentaen-8-one] | 1.7 | 5
9 | [2H]C([2H])([2H])n1ncc2c1-c1ccnc(c1)[C@@H](N1CCC(c3cc(Cl)ccc3C#N)=CC1=O)CCC[C@@H](C)C(=O)N2 [Example 32, 4-chloro-2-{1-[(9R,13S)-3-(^2H3)methyl-9-methyl-8-oxo-3,4,7,15-tetraazatricyclo[12.3.1.0^2,6]octadeca-1(18),2(6),4,14,16-pentaen-13-yl]-6-oxo-1,2,3,6-tetrahydropyridin-4-yl}benzonitrile] | 2.4 | 4

Next, values leading:

Row | Ki [1] [nM] | Ki [2] [nM] | Structure (SMILES)
10 | 14 | 480 | C[C@@H]1CCC[C@H](N2CCC(c3cc(Cl)ccc3-n3ccnn3)=CC2=O)c2cc(ccn2)-c2nn(CC(=O)O)cc2NC1=O [Example 12, 2-(13-{4-[5-chloro-2-(1H-1,2,3-triazol-1-yl)phenyl]-6-oxo-1,2,3,6-tetrahydropyridin-1l-yl}-9-methyl-8-oxo-3,4,7,15-tetraazatricyclo[12.3.1.0^2,6]octadeca-1(18),2,5,14,16-pentaen-4-yl)acetic Acid]
11 | 1 | 34 | C[C@@H]1CCC[C@H](N2CCC(c3c(-c4cnn(C(F)F)c4)ccc(Cl)c3F)=CC2=O)c2cc(ccn2)-c2c(cnn2C)NC1=O [Example 41, (9R,13S)-13-(4-{3-chloro-6-[1-(difluoromethyl)-1H-pyrazol-4-yl]-2-fluorophenyl}-6-oxo-1,2,3,6-tetrahydropyridin-1-yl)-3,9-dimethyl-3,4,7,15-tetraazatricyclo[12.3.1.0^2,6]octadeca-1(18),2(6),4,14,16-pentaen-8-one]
12 | 0.15 | 10 | [2H]C([2H])([2H])n1ncc2c1-c1ccnc(c1)[C@@H](N1CCC(c3cc(Cl)ccc3-n3cc(Cl)nn3)=CC1=O)CCC[C@@H](C)C(=O)N2 [Example 17, (9R,13S)-13-{4-[5-chloro-2-(4-chloro-1H-1,2,3-triazol-1-yl)phenyl]-6-oxo-1,2,3,6-tetrahydropyridin-1-yl}-3-(^2H3)methyl-9-methyl-3,4,7,15-tetraazatricyclo[12.3.1.0^2,6]octadeca-1(18),2(6),4,14,16-pentaen-8-one]
13 | 1 | 7 | [2H]C([2H])([2H])n1ncc2c1-c1ccnc(c1)[C@@H](N1CCC(c3c(OC(F)F)ccc(Cl)c3F)=CC1=O)CCC[C@@H](C)C(=O)N2 [Example 30, (9R,13S)-13-{4-[3-chloro-6-(difluoromethoxy)-2-fluorophenyl]-6-oxo-1,2,3,6-tetrahydropyridin-1-yl}-3-(^2H3)methyl-9-methyl-3,4,7,15-tetraazatricyclo[12.3.1.0^2,6]octadeca-1(18),2(6),4,14,16-pentaen-8-one]
14 | 4.7 | 16 | C[C@@H]1CCC[C@H](N2CCC(c3cc(Cl)ccc3Br)=CC2=O)c2cc(ccn2)-c2c(cnn2C)NC1=O [Example 37, (9R,13S)-13-[4-(2-bromo-5-chlorophenyl)-6-oxo-1,2,3,6-tetrahydropyridin-1-yl]-3,9-dimethyl-3,4,7,15-tetraazatricyclo[12.3.1.0^2,6]octadeca-1(18),2(6),4,14,16-pentaen-8-one]
15 | 1.1 | 120 | C[C@@H]1CCC[C@H](N2CCC(c3c(C#N)ccc(Cl)c3F)=CC2=O)c2cc(ccn2)-c2c(cnn2C)NC1=O [Example 39, 4-chloro-2-{1-[(9R,13S)-3,9-dimethyl-8-oxo-3,4,7,15-tetraazatricyclo[12.3.1.0^2,6]octadeca-1(18),2(6),4,14,16-pentaen-13-yl]-6-oxo-1,2,3,6-tetrahydropyridin-4-yl}-3-fluorobenzonitrile]
16 | 0.1 | 7 | [2H]C([2H])([2H])n1ncc2c1-c1ccnc(c1)[C@@H](N1CCC(c3cc(Cl)ccc3-n3cc(C(F)(F)F)nn3)=CC1=O)CCC[C@@H](C)C(=O)N2 [Example 42, (9R,13S)-13-(4-{5-chloro-2-[4-(trifluoromethyl)-1H-1,2,3-triazol-1-yl]phenyl}-6-oxo-1,2,3,6-tetrahydropyridin-1-yl)-3-(^2H3)methyl-9-methyl-3,4,7,15-tetraazatricyclo[12.3.1.0^2,6]octadeca-1(18),2(6),4,14,16-pentaen-8-one]
17 | 0.1 | 6 | C[C@@H]1CCC[C@H](N2CCC(c3cc(Cl)ccc3-n3cc(Cl)nn3)=CC2=O)c2cc(ccn2)-c2c(cnn2C(F)F)NC1=O [Example 55, (9R,13S)-13-{4-[5-chloro-2-(4-chloro-1H-1,2,3-triazol-1-yl)phenyl]-6-oxo-1,2,3,6-tetrahydropyridin-1-yl}-3-(difluoromethyl)-9-methyl-3,4,7,15-tetraazatricyclo[12.3.1.0^2,6]octadeca-1(18),2(6),4,14,16-pentaen-8-one]
